In article PMC12040169 (PLOS Biology, 2025):

Experiment: in vitro
Conditions: human, hela cells

| Compound | viability at 28.5 h, 10 µM (% viability) [%] | viability at 28.5 h, 10 µM [%] |
| --- | --- | --- |
| Cn1nc(CN2CCNC(=O)C2c2ccccc2C(F)(F)F)[nH]c1=O (stereo not shown) [CBK306269] | 91.3 | – |
| Nc1nc(OCc2ccncc2)cnc1-c1ccc(OC(F)(F)F)cc1 [CBK145121] | 99.8 | – |
| Cn1c(=O)c2c(ncn2CC(=O)Nc2ccc(C#N)cc2)n(C)c1=O [CBK133466] | 90.9 | – |
| CC(C)Oc1ccc(C(F)(F)F)cc1N [CBK028895C] | 105 | – |
| Cc1cc(NS(=O)(=O)c2ccc(Br)cc2C(F)(F)F)n(C)n1 [CBK067255] | 107 | – |
| c1cc(-c2nnn[nH]2)ccc1OCc1nnn[nH]1 [CBK268083] | 93.1 | – |
| CC(=O)N/N=C(\C)c1ccc(-n2cnnn2)cc1 [CBK261252] | 95.9 | – |
| NC(=O)COC(=O)COc1ccc(Cl)cc1Cl [CBK058628] | – | 85.8 |
| C=CCc1c(O)nc(SCC(=O)N2CCOCC2)[nH]c1=O [CBK073301] | 91.8 | – |
| COc1ccc(N2CCN(Cc3nc4c(c(=O)n(C)c(=O)n4C)n3CC(C)=O)CC2)cc1 [CBK269465] | 103 | – |
| O=C(Nc1ccc(Cl)cc1)N1CCC(n2c(=O)[nH]c3ccccc32)CC1 [CBK149850] | 98.5 | – |
| CCCCCCC1N=NC(c2ccc(F)cc2)=CN1O (stereo not shown) [CBK019298] | 94.8 | – |
| CC(=O)Nc1cccc(CN(CCCO)C2CCc3ccccc32)c1 (stereo not shown) [CBK304011] | 95 | – |
| Nc1nonc1-c1cccnc1 [CBK006120] | 105 | – |
| CC(=O)Nc1sc(/C(C#N)=C/c2cccc(Oc3ccccc3)c2)nc1-c1ccc(C)cc1 [CBK264895] | 98.4 | – |
| COc1ccc([C@@]23CC[C@@H](NC(=O)Nc4cccc(-c5nn[nH]n5)c4)C[C@@H]2N(C)CC3)cc1OC [CBK051273T] | 87.8 | – |
| CC(C)(C)C(=O)Nc1nnc(SCC(=O)N2CCc3ccccc32)s1 [CBK004889] | 83.5 | – |
| CC(C)(C)NC(=O)Cn1cncc1-c1cnn(-c2ccccc2)c1 [CBK281697] | 106 | – |
| COC(=O)c1ccc(CSc2nnc(-c3ccc(OC)cc3)n2C(C)C)o1 [CBK297523] | 96.4 | – |
| Cc1ccc(CNC(=O)CSc2nnc(-c3ccncc3)n2-c2ccccc2)cc1 [CBK266654] | 102 | – |
| COc1cc2c(cc1OC)CN(CC(O)COc1cccc3c1CCCC3)CC2 (stereo not shown) [CBK003828] | 113 | – |
| COc1ccc(/C=N/NC(=O)C2CCN(c3ncc(C(F)(F)F)cc3Cl)CC2)cc1 [CBK007433] | 102 | – |
| CCCNc1nc(-c2ccc(SC)cc2)cn2ccnc12 [CBK066619] | 95.5 | – |
| CC(C)Nc1cncc(Sc2cccc(N)c2)n1 [CBK091434] | 108 | – |
| O=C(Cn1c(-c2cccs2)cc2cccnc21)NCc1cccnc1 [CBK282457] | 105 | – |
| NC(=S)N1N=C2CCCCC2C1c1ccccc1 (stereo not shown) [CBK288371] | 84.2 | – |
| O=C(O)c1[nH]c2ccccc2c1C(c1ccsc1)c1c(C(=O)O)[nH]c2ccccc12 [CBK267811] | 103 | – |

| Compound | viability at 28.5 h, 10 µM (% viability) [%] | viability at 28.5 h, 10 µM [%] |
| --- | --- | --- |
| CC1CC(C)CN(C(=O)Cn2c(=O)n(C)c3ncccc32)C1 (stereo not shown) [CBK283794] | 93.8 | – |
| COc1ccc(-c2cnc(NCC3CC3)c(C(=O)N3CCN(C)CC3)c2)cc1 [CBK076327] | 96.6 | – |
| O=[N+]([O-])c1nn(-c2ccccc2)[n+]([O-])c1Nc1ccc(Br)cc1 [CBK268504] | 98.7 | – |
| O=C(O)CCC(=O)Nc1ccc(Oc2ccccc2)cc1 [CBK286957] | 88.9 | – |
| OCCn1c(-c2ccc(Br)cc2)cn2c3ccccc3nc12 [CBK262167] | 95.2 | – |
| COc1ccc(CC(=O)O)cc1S(=O)(=O)Nc1ccc(SC)cc1 [CBK298315] | 81 | – |
| CCCC(=O)Nc1ccc(C(=O)N2CCN(C)CC2)cc1 [CBK304337] | 100 | – |
| O=C(NCc1ccc(Cl)c(Cl)c1)C1(c2ccccc2)CCCC1 [CBK149528] | 92.8 | – |
| COc1ccc(S(=O)(=O)N2CCCC(C(=O)Nc3ccc(C(N)=O)cc3)C2)cc1C (stereo not shown) [CBK269163] | 99.4 | – |
| COC(=O)C1=C(C)N(c2ccc(C(=O)O)cc2)C(=O)NC1c1cccc(OC)c1OC (stereo not shown) [CBK295355] | 112 | – |
| Nc1cccc(Sc2ncccn2)c1 [CBK085844] | 93.4 | – |
| CCC(CO)NCc1ccc(-c2ccccc2)cc1 (stereo not shown) [CBK268082C] | 97.6 | – |
| CCn1ccnc1CN1CCOC(Cc2ccccc2Cl)C1 (stereo not shown) [CBK306625] | 94.5 | – |
| COc1ccc(S(=O)(=O)N(CC(=O)Nc2ccc3c(c2)OCCO3)c2ccc(F)cc2)cc1 [CBK268584] | 114 | – |
| CCC(Oc1ccccc1)C(=O)Nc1cc(OC)c(Cl)cc1OC (stereo not shown) [CBK262235] | 112 | – |
| COc1ccc(S(=O)(=O)N(C)CC(=O)N2CCOCC2)cc1C [CBK267898] | 95.8 | – |
| CC(C)c1ccc(S(=O)(=O)Nc2ccc(Br)c(F)c2)cc1 [CBK044556] | 100 | – |
| COCCNc1cc(-c2ccc(NC(C)=O)cc2)ncn1 [CBK090799] | 97.8 | – |
| O=C(CN1CCCc2ccccc21)c1ccsc1 [CBK138333] | 91.5 | – |
| Cc1nn(C)c(C)c1S(=O)(=O)n1ccn(-c2cccc(C(F)(F)F)c2)c1=O [CBK106593] | 98.7 | – |
| CC1(C)CC(=O)C2=C(C1)Nc1nc(SCc3ccc([N+](=O)[O-])cc3)[nH]c(=O)c1C2c1cccnc1 (stereo not shown) [CBK266096] | 108 | – |
| O=S(=O)(c1ccccc1)N1C[C@@H]2CCCCN(CC3CC3)[C@@H]2C1 [CBK285501] | 109 | – |
| Cn1c2c(c(=O)n(C)c1=O)[C@H]1[C@H](O)[C@H](O)C[C@H]1[C@@H](C(O)c1ccccc1)N2 (stereo partly shown) [CBK303236] | 92.8 | – |
| Cn1c(-c2ccccc2)cnc1NC(=O)C1CCN(S(=O)(=O)c2ccc(F)cc2)C1 (stereo not shown) [CBK285709] | 95.6 | – |
| CCCNCc1ccc(-c2nnn(CC(=O)NCc3ccc(C4CCC4)cc3)n2)cc1 [CBK167525C] | 105 | – |
| CC(C)(N)CNC(=O)c1cc(C(C)(C)C)nn1Cc1ccc(Cl)cc1Cl [CBK107296] | 95.6 | – |
| CC(=O)Nc1ccc(NC(=O)CSCc2ccc(Cl)cc2Cl)cc1 [CBK131696] | 96.4 | – |

| Compound | viability at 28.5 h, 10 µM (% viability) [%] | viability at 28.5 h, 10 µM [%] |
| --- | --- | --- |
| CCOC(=O)CN1CCCN(c2ccnc(OC3CCCCC3)n2)CC1 [CBK083864] | 90.9 | – |
| CCc1nc(C(N)=O)c2[nH]c(=O)n(-c3ccccc3F)c2n1 [CBK287739] | 107 | – |
| OC(CN[C@H]1CC[C@](O)(c2ccc(Cl)cc2)CC1)c1ccccc1 (stereo partly shown) [CBK016206] | 98.4 | – |
| CCn1ncc(CN2CCN(C(=S)Nc3ccccc3C(F)(F)F)CC2)c1C [CBK266968] | 96.2 | – |
| COCC(C)NC(=O)Cn1c(C(F)F)cc2cccnc21 (stereo not shown) [CBK285010] | 105 | – |
| CC(C)NC(=O)[C@@H](C)C1CC[C@@]2(C)CC[C@H](NC(=O)c3cncnc3)[C@@H](C)[C@@H]2[C@H]1O (stereo partly shown) [CBK289454] | 103 | – |
| CC(C)[C@H](CO)NC(=O)c1cnc(-c2ccccc2)c(-c2ccncc2)c1 [CBK036691] | 115 | – |
| CNC(=O)c1cccc(NS(=O)(=O)c2sc3ccc(Cl)cc3c2C)c1 [CBK160383] | 89.3 | – |
| COC(=O)c1ccccc1NC(=O)c1cc2nc(-c3cccs3)cc(C(F)(F)F)n2n1 [CBK262524] | 88 | – |
| O=[N+]([O-])c1cc(C(F)(F)F)ccc1NCCNC(=S)Nc1ccc(Cl)cc1 [CBK263578] | 92.9 | – |
| CC1CCc2c(C(=O)N(C)CC(=O)NC(C)(C)C)csc2C1 (stereo not shown) [CBK305002] | 97.5 | – |
| CSc1ncc(Cl)c(C(=O)Nc2sc3c(c2C(=O)NC2CCS(=O)(=O)C2)CCC(C)C3)n1 (stereo not shown) [CBK268886] | 95.2 | – |
| Cc1cc(CNC(=O)CCn2ccc(C)n2)on1 [CBK281485] | 97.3 | – |
| CN1CCCN(c2cncc(-c3cc4ccccc4o3)n2)CC1 [CBK065997] | 93 | – |
| O=C(C1CC2C=CC1C21CC1)N1CCN(c2nccs2)CC1 (stereo not shown) [CBK281640] | 90.4 | – |
| COc1cccc(CN2CCN(C(=O)c3cccc(F)c3)CC2)c1OC [CBK074527] | 85.1 | – |
| Cc1ccccc1CN1CC[C@H]2[C@@H](C1)[C@H](c1ccsc1)CN2C(=O)c1ccccc1 [CBK285618] | 100 | – |
| Cc1nc(C)n(CC(=O)NCCCc2ccc(Cl)cc2)n1 [CBK281559] | 90.9 | – |
| CCCC/C=C/c1ccc(Nc2ccc3c(c2)OCCO3)nc1 [CBK037774] | 93.3 | – |
| CCN(C(C)=O)c1nc(CN2CCOC(c3ccc(F)cc3)C2)cs1 (stereo not shown) [CBK306213] | 94.3 | – |
| O=c1c2nnc3ncnn3c2ccn1-c1ccccc1 [CBK288075] | 99.5 | – |
| O=C(O)c1ccn(-c2ccc(NS(=O)(=O)c3ccc(N4CCCC4=O)cc3)cc2)n1 [CBK298327] | 102 | – |
| CC1(OCCCO)SC(NC2CCCCCC2)=NC1=O (stereo not shown) [CBK107927] | 91.5 | – |
| OC(CNc1cccc2ccccc12)Cn1c2ccc(Br)cc2c2cc(Br)ccc21 (stereo not shown) [CBK261420] | 99.8 | – |
| NNC(=O)CCc1ccccc1O [CBK261214] | 97.2 | – |
